# Measured values from US11472788B2, “Benzoimidazoles as selective inhibitors of indoleamine 2,3-dioxygenases” (BEIGENE, LTD., priority 2017, dated 2022).
# Target: cellular IDO1 in HeLa cells (Homo sapiens (Human), UniProt P14902)
# Experiment: HeLa Cell-Based IDO1 Kyn (Kynurenine) Production Assay
# Conditions: IFN-γ induced IDO1, 48 hours incubation, Kyn absorbance at 480 nm
# Method in brief: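 Compounds added to HeLa cells together with IFN-γ (100 ng/mL final) and 0.4 mM L-Trp, 48 h at 37 °C. Kynurenine in TCA-deproteinized supernatant measured colorimetrically with 4-(dimethylamino)benzaldehyde at 480 nm; IC50 from four-parameter logistic fit.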
# cellular IDO1 in HeLa cells, sequence (P14902 whole entry): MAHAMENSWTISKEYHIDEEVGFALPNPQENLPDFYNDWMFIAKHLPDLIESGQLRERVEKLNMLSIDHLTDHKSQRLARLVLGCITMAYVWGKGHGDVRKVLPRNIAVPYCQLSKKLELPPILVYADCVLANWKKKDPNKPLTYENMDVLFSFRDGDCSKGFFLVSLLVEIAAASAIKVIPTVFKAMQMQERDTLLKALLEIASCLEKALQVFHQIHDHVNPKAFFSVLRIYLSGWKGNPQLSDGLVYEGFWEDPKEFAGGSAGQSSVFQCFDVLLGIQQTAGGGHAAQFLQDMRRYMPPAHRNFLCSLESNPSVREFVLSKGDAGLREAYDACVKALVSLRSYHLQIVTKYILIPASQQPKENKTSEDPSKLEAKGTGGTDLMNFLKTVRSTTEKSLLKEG
row,SMILES,EC50
1,"CC(c1nc2cc(C(=O)NCC3(O)CCC3)ccc2[nH]1)[C@H]1CC[C@H](c2ccnc3ccc(F)cc32)CC1 (some centres unmarked) [Example B184, 2-(1-((1r,4r)-4-(6-fluoroquinolin-4-yl)cyclohexyl)ethyl)-N-((1-hydroxycyclobutyl)methyl)-1H-benzo[d]imidazole-5-carboxamide]",> 1000 nM
2,"COC1CCC(NC(=O)c2ccc3[nH]c(C(C)[C@H]4CC[C@@H](c5ccnc6ccc(F)cc65)CC4)nc3c2)CC1 (some centres unmarked) [Example B185, 2-(1-((1s,4s)-4-(6-fluoroquinolin-4-yl)cyclohexyl)ethyl)-N-(4-methoxycyclohexyl)-1H-benzo[d]imidazole-5-carboxamide]",122 nM
3,"COC1CCC(NC(=O)c2ccc3[nH]c(C(C)[C@H]4CC[C@H](c5ccnc6ccc(F)cc65)CC4)nc3c2)CC1 (some centres unmarked) [Example B186, 2-(1-((1r,4r)-4-(6-fluoroquinolin-4-yl)cyclohexyl)ethyl)-N-(4-methoxycyclohexyl)-1H-benzo[d]imidazole-5-carboxamide]",193 nM
4,"C[C@@H](c1nc2cc(F)c(F)c(Cl)c2[nH]1)[C@H]1CC[C@@H](c2ccnc3ccc(F)cc32)CC1 [Example B189, 4-((1R,4s)-4-((S)-1-(7-chloro-5,6-difluoro-1H-benzo[d]imidazol-2-yl)ethyl)cyclohexyl)-6-fluoroquinoline]",45.9 nM
5,"C[C@@H](c1nc2cc(F)c(F)c(Cl)c2[nH]1)[C@H]1CC[C@H](c2ccnc3ccc(F)cc32)CC1 [Example B190, 4-((1R,4r)-4-((R)-1-(7-chloro-5,6-difluoro-1H-benzo[d]imidazol-2-yl)ethyl)cyclohexyl)-6-fluoroquinoline]",5.74 nM
6,CON(C)C(=O)c1ccc2nc([C@H](C)[C@H]3CC[C@@H](c4ccnc5ccc(F)cc54)CC3)[nH]c2c1 [Example B196],26.5 nM
7,"C[C@@H](c1nc2ccc(C3=NCCO3)cc2[nH]1)[C@H]1CC[C@@H](c2ccnc3ccc(F)cc32)CC1 [Example B197, 2-(2-((R)-1-((1s,4S)-4-(6-fluoroquinolin-4-yl)cyclohexyl)ethyl)-1H-benzo[d]imidazol-6-yl)-4,5-dihydrooxazole]",8.1 nM
8,"COC(=O)c1c(F)ccc2[nH]c([C@@H](C)[C@H]3CC[C@@H](c4ccnc5ccc(F)cc54)CC3)nc12 [Example B198, methyl 5-fluoro-2-((S)-1-((1s,4R)-4-(6-fluoroquinolin-4-yl)cyclohexyl)ethyl)-1H-benzo[d]imidazole-4-carboxylate]",984 nM
9,"COC(=O)c1c(F)ccc2[nH]c([C@H](C)[C@H]3CC[C@@H](c4ccnc5ccc(F)cc54)CC3)nc12 [Example B199, methyl 5-fluoro-2-((R)-1-((1s,4S)-4-(6-fluoroquinolin-4-yl)cyclohexyl)ethyl)-1H-benzo[d]imidazole-4-carboxylate]",21.9 nM
10,"CCOC(=O)c1cc2nc([C@@H](C)C3CCC(c4ccnc5ccc(F)cc45)CC3)[nH]c2cc1C (stereo partly drawn) [Example B200, ethyl 2-((S)-1-((1s,4S)-4-(6-fluoroquinolin-4-yl)cyclohexyl)ethyl)-6-methyl-1H-benzo[d]imidazole-5-carboxylate]",73.3 nM
11,"CCOC(=O)c1cc2nc([C@H](C)[C@H]3CC[C@@H](c4ccnc5ccc(F)cc54)CC3)[nH]c2cc1C [Example B201, ethyl 2-((R)-1-((1s,4S)-4-(6-fluoroquinolin-4-yl)cyclohexyl)ethyl)-6-methyl-1H-benzo[d]imidazole-5-carboxylate]",1.6 nM
12,"CC(=O)c1ccc2nc([C@H](C)[C@H]3CC[C@@H](c4ccnc5ccc(F)cc54)CC3)[nH]c2c1 [Example B202, 1-(2-((R)-1-((1s,4S)-4-(6-fluoroquinolin-4-yl)cyclohexyl)ethyl)-1H-benzo[d]imidazol-6-yl)ethan-1-one]",2.9 nM
13,"CC(c1nc2cc(F)c(F)c(Cl)c2[nH]1)[C@H]1CC[C@@H](c2ccnc3ccc(F)cc32)CC1 (some centres unmarked) [Example B203, 4-((1s,4s)-4-(1-(7-chloro-5,6-difluoro-1H-benzo[d]imidazol-2-yl)ethyl)cyclohexyl)-6-fluoroquinoline]",8.8 nM
14,"C[C@@H](c1nc2c(F)cc(F)c(Cl)c2[nH]1)[C@H]1CC[C@@H](c2ccnc3ccc(F)cc32)CC1 [Example B204, 4-((1R,4s)-4-((S)-1-(7-chloro-4,6-difluoro-1H-benzo[d]imidazol-2-yl)ethyl)cyclohexyl)-6-fluoroquinoline]",6.79 nM
15,"C[C@@H](c1nc2c(F)cc(F)c(Cl)c2[nH]1)[C@H]1CC[C@H](c2ccnc3ccc(F)cc32)CC1 [Example B205, 4-((1R,4r)-4-((R)-1-(7-chloro-4,6-difluoro-1H-benzo[d]imidazol-2-yl)ethyl)cyclohexyl)-6-fluoroquinoline]",28.9 nM
16,"Cc1cc(C(=O)NC2CCC2)cc2[nH]c(C(C)C3CCC(c4ccnc5ccc(F)cc45)CC3)nc12 (centres unmarked) [Example B206, N-cyclobutyl-2-(1-(4-(6-fluoroquinolin-4-yl)cyclohexyl)ethyl)-4-methyl-1H-benzo[d]imidazole-6-carboxamide]",27.1 nM
17,COC(=O)c1ccc(C(F)(F)F)c2[nH]c(C(C)[C@H]3CC[C@@H](c4ccnc5ccc(F)cc54)CC3)nc12 (some centres unmarked) [Example B207],18.4 nM
18,"COC(=O)c1cccc2[nH]c([C@H](C)[C@H]3CC[C@@H](c4ccnc5ccc(F)cc54)CC3)nc12 [Example B210, methyl 2-((R)-1-((1s,4S)-4-(6-fluoroquinolin-4-yl)cyclohexyl)ethyl)-1H-benzo[d]imidazole-4-carboxylate]",26.6 nM
19,"C[C@H](c1nc2c(ccc3ccccc32)[nH]1)[C@H]1CC[C@@H](c2ccnc3ccc(F)cc32)CC1 [Example B211, 2-((S)-1-((1s,4R)-4-(6-fluoroquinolin-4-yl)cyclohexyl)ethyl)-3H-naphtho[1,2-d]imidazole]",1.3 nM
20,"C[C@@H](c1nc2c(ccc3ccccc32)[nH]1)[C@H]1CC[C@H](c2ccnc3ccc(F)cc32)CC1 [Example B212, 2-((R)-1-((1r,4R)-4-(6-fluoroquinolin-4-yl)cyclohexyl)ethyl)-3H-naphtho[1,2-d]imidazole]",27.9 nM
21,"COCCNC(=O)c1ccc2[nH]c(C(C)[C@H]3CC[C@@H](c4ccnc5ccc(F)cc54)CC3)nc2c1 (some centres unmarked) [Example B216, 2-(1-((1s,4s)-4-(6-fluoroquinolin-4-yl)cyclohexyl)ethyl)-N-(2-methoxyethyl)-1H-benzo[d]imidazole-5-carboxamide]",62.9 nM
22,Cc1noc(-c2ccc3[nH]c(C(C)[C@H]4CC[C@@H](c5ccnc6ccc(F)cc65)CC4)nc3c2)n1 (some centres unmarked) [Example B217],1.2 nM
23,"Cc1noc(-c2ccc3nc([C@H](C)[C@H]4CC[C@@H](c5ccnc6ccc(F)cc65)CC4)[nH]c3c2)n1 [Example B220, 5-(2-((R)-1-((1s,4S)-4-(6-fluoroquinolin-4-yl)cyclohexyl)ethyl)-1H-benzo[d]imidazol-6-yl)-3-methyl-1,2,4-oxadiazole]",0.96 nM

# Continued, values first:
row,EC50,SMILES
1,74 nM,"Fc1ccc2nccc([C@H]3CC[C@H](c4nc5cc(Cl)ccc5[nH]4)CC3)c2c1 [Example C2a, 4-((1r,4r)-4-(5-chloro-1H-benzo[d]imidazol-2-yl)cyclohexyl)-6-fluoroquinoline]"
2,11 nM,"Fc1ccc2nccc([C@H]3CC[C@@H](c4nc5cc(Cl)ccc5[nH]4)CC3)c2c1 [Example C2b, 4-((1s,4s)-4-(5-chloro-1H-benzo[d]imidazol-2-yl)cyclohexyl)-6-fluoroquinoline]"
3,16 nM,"Cc1ccc2[nH]c(C3CCC(c4ccnc5ccc(F)cc45)CC3)nc2c1 (centres unmarked) [Example C3, 6-fluoro-4-(4-(5-methyl-1H-benzo[d]imidazol-2-yl)cyclohexyl)quinoline]"
4,9.1 nM,"Fc1ccc2nccc(C3CCC(c4nc5cc(Br)ccc5[nH]4)CC3)c2c1 (centres unmarked) [Example C4, 4-(4-(5-bromo-1H-benzo[d]imidazol-2-yl)cyclohexyl)-6-fluoroquinoline]"
5,1430 nM,"Fc1ccc2[nH]c([C@H]3CC[C@H](c4ccnc5ccc(F)cc54)CC3)nc2c1 [Example C5a, 6-fluoro-4-((1r,4r)-4-(5-fluoro-1H-benzo[d]imidazol-2-yl)cyclohexyl)quinoline]"
6,73 nM,"Fc1ccc2[nH]c([C@H]3CC[C@@H](c4ccnc5ccc(F)cc54)CC3)nc2c1 [Example C5b, 6-fluoro-4-((1s,4s)-4-(5-fluoro-1H-benzo[d]imidazol-2-yl)cyclohexyl)quinoline]"
7,14 nM,"Fc1ccc2nccc([C@H]3CC[C@@H](c4nc5cc(C6CC6)ccc5[nH]4)CC3)c2c1 [Example C6b, 4-((1s,4s)-4-(5-cyclopropyl-1H-benzo[d]imidazol-2-yl)cyclohexyl)-6-fluoroquinoline]"
8,1360 nM,"Fc1ccc2nccc([C@H]3CC[C@H](c4nc5cc(F)c(F)cc5[nH]4)CC3)c2c1 [Example C7a, 4-((1r,4r)-4-(5,6-difluoro-1H-benzo[d]imidazol-2-yl)cyclohexyl)-6-fluoroquinoline]"
9,70 nM,"Fc1ccc2nccc([C@H]3CC[C@@H](c4nc5cc(F)c(F)cc5[nH]4)CC3)c2c1 [Example C7b, 4-((1s,4s)-4-(5,6-difluoro-H-benzo[d]imidazol-2-yl)cyclohexyl)-6-fluoroquinoline]"
10,1200 nM,"COC(=O)c1ccc2[nH]c([C@H]3CC[C@H](c4ccnc5ccc(F)cc54)CC3)nc2c1 [Example C8a, methyl 2-((1r,4r)-4-(6-fluoroquinolin-4-yl)cyclohexyl)-1H-benzo[d]imidazole-5-carboxylate]"
11,37 nM,"COC(=O)c1ccc2[nH]c([C@H]3CC[C@@H](c4ccnc5ccc(F)cc54)CC3)nc2c1 [Example C8b, methyl 2-((1s,4s)-4-(6-fluoroquinolin-4-yl)cyclohexyl)-1H-benzo[d]imidazole-5-carboxylate]"
12,> 10000 nM,"NC(=O)c1ccc2[nH]c([C@H]3CC[C@H](c4ccnc5ccc(F)cc54)CC3)nc2c1 [Example C9a, 2-((1r,4r)-4-(6-fluoroquinolin-4-yl)cyclohexyl)-1H-benzo[d]imidazole-5-carboxamide]"
